Data as given in patent US11247990B1, “Bicyclic fused pyridine compounds as inhibitors of TAM kinases” (ARRAY BIOPHARMA INC., priority 2017, dated 2022).
Structures can show the parent of a compound that is named as a salt.

Legend:
Conditions in all cases: averaged IC50
[1] = molecular target: GST-tagged recombinant human TYRO3 kinase domain (Homo sapiens (Human), UniProt Q06418); experiment: TYRO3 Enzyme Assay (LanthaScreen Eu Kinase Binding, TR-FRET)
Summary of the method: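 LanthaScreen Eu binding (tracer displacement) format read by TR-FRET after 60 min at 22 °C. Emission ratio converted to percent of control; IC50 taken where a 4-parameter logistic fit crosses 50 POC.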

[2] = molecular target: His-tagged recombinant human MER cytoplasmic domain (Homo sapiens (Human), UniProt Q12866); experiment: MER Enzyme Assay (LanthaScreen Eu Kinase Binding, TR-FRET)
Sequence of His-tagged recombinant human MER cytoplasmic domain (Q12866 527-999): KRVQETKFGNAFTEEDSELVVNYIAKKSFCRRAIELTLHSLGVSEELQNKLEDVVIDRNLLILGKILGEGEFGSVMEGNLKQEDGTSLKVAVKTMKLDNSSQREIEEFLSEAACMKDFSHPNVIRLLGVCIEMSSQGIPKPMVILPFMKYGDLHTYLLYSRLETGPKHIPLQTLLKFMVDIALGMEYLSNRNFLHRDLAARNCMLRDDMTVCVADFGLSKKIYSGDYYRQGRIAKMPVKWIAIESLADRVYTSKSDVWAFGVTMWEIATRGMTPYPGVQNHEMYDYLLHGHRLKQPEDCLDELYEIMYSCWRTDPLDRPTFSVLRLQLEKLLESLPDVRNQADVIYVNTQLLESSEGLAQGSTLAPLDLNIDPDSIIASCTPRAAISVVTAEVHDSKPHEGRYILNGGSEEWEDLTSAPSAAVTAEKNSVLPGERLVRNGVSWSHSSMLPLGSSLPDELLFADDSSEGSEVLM
Summary of the method: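 Percent of control, derived from ratiometric TR-FRET emission, was fitted to a 4-parameter logistic curve and IC50 taken at 50 POC. Binding was read after 60 min at 22 °C using Eu-based LanthaScreen technology and recombinant His-tagged MER cytoplasmic domain.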

[3] = molecular target: His-tagged recombinant human AXL cytoplasmic domain (Homo sapiens (Human), UniProt P30530); experiment: AXL Enzyme Assay (LanthaScreen Eu Kinase Binding, TR-FRET)
Sequence of His-tagged recombinant human AXL cytoplasmic domain (P30530 473-894): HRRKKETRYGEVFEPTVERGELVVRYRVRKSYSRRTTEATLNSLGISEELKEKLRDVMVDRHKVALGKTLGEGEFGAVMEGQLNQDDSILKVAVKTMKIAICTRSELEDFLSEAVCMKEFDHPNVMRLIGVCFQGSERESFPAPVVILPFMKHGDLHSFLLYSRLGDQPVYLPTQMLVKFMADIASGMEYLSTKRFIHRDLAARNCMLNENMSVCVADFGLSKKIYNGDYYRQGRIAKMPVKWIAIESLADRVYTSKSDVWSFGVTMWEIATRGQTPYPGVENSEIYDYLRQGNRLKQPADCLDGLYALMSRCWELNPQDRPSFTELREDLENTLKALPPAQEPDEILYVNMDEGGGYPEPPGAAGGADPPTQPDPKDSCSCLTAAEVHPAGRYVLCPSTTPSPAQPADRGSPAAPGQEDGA
Summary of the method: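 Compound displacement measured by TR-FRET after 60 min at 22 °C, using Eu-based LanthaScreen binding technology. Ratiometric emission converted to percent of control, fitted to a 4-parameter logistic curve, with IC50 at 50 POC.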

Sequence of GST-tagged recombinant human TYRO3 kinase domain (Q06418 518-790): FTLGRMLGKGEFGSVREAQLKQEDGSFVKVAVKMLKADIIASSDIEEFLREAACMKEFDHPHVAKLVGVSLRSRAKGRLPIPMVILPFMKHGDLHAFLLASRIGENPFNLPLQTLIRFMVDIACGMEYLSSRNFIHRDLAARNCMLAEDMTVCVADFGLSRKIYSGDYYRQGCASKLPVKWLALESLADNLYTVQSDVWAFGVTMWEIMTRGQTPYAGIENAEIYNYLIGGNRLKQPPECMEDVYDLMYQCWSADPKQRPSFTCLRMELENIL

Row | Compound | IC50 [1] | IC50 [2] | IC50 [3]
1 | CCNc1cc2c(cn1)c(-c1cnn(C[C@H](O)C(C)(C)O)c1)nn2[C@H]1CC[C@@H](Oc2nccc(C(F)(F)F)c2F)CC1 [Example 236, (S)-1-(4-(6-(ethylamino)-1-((1s,4R)-4-((3-fluoro-4-(trifluoromethyl)pyridin-2-yl)oxy)cyclohexyl)-1H-pyrazolo[4,3-c]pyridin-3-yl)-1H-pyrazol-1-yl)-3-methylbutane-2,3-diol] | 10 to 100 nM | < 10 nM | < 10 nM
2 | CCNc1cc2c(cn1)c(-c1cnn(C[C@@H](O)C(C)(C)O)c1)nn2[C@H]1CC[C@@H](Oc2cccc(F)c2F)CC1 [Example 446, (R)-1-(4-(1-((1s,4S)-4-(2,3-difluorophenoxy)cyclohexyl)-6-(ethylamino)-1H-pyrazolo[4,3-c]pyridin-3-yl)-1H-pyrazol-1-yl)-3-methylbutane-2,3-diol] | < 10 nM | < 10 nM | < 10 nM
3 | CCNc1cc2c(cn1)c(-c1cnn(C(CO)CO)c1)nn2[C@H]1CC[C@@H](Oc2ccc(F)cc2F)CC1 [Example 414, 2-(4-(1-((1s,4s)-4-(2,4-difluorophenoxy)cyclohexyl)-6-(ethylamino)-1H-pyrazolo[4,3-c]pyridin-3-yl)-1H-pyrazol-1-yl)propane-1,3-diol] | 10 to 100 nM | < 10 nM | < 10 nM
4 | CNc1cc2c(cn1)c(-c1cnn(C)c1)nn2[C@H]1CC[C@@H](Oc2cc(Cl)cnc2C#N)CC1 [Example 175, 5-chloro-3-(((1s,4s)-4-(3-(1-methyl-1H-pyrazol-4-yl)-6-(methylamino)-1H-pyrazolo[4,3-c]pyridin-1-yl)cyclohexyl)oxy)picolinonitrile] | 10 to 100 nM | < 10 nM | < 10 nM
5 | CCNc1cc2c(cn1)c(N1CCC[C@H](NC)C1)nn2[C@H]1CC[C@@H](Oc2nccc(C(F)(F)F)c2F)CC1 [Example 338, N-ethyl-1-((1s,4R)-4-((3-fluoro-4-(trifluoromethyl)pyridin-2-yl)oxy)cyclohexyl)-3-((S)-3-(methylamino)piperidin-1-yl)-1H-pyrazolo[4,3-c]pyridin-6-amine] | 10 to 100 nM | < 10 nM | < 10 nM
6 | CNc1cc2c(cn1)c(-c1cnn([C@H]3CCNC[C@@H]3F)c1)nn2[C@H]1CC[C@@H](Oc2ccccc2F)CC1 [Example 399, 1-((1s,4R)-4-(2-fluorophenoxy)cyclohexyl)-3-(1-((3S,4S)-3-fluoropiperidin-4-yl)-1H-pyrazol-4-yl)-N-methyl-1H-pyrazolo[4,3-c]pyridin-6-amine] | 10 to 100 nM | < 10 nM | < 10 nM
7 | CCNc1cc2c(cn1)c(-c1cnn(C[C@@H](O)CO)c1)nn2[C@H]1CC[C@@H](Oc2cccc(Cl)c2)CC1 [Example 422] | 10 to 100 nM | < 10 nM | < 10 nM
8 | CNc1cc2c(cn1)c(-c1cnn(C)c1)nn2[C@H]1CC[C@@H](Oc2cccc3ncc(F)cc23)CC1 [Example 384, 1-((1,4s)-4-((3-fluoroquinolin-5-yl)oxy)cyclohexyl)-N-methyl-3-(1-methyl-1H-pyrazol-4-yl)-1H-pyrazolo[4,3-c]pyridin-6-amine] | < 10 nM | < 10 nM | < 10 nM
9 | CNc1cc2c(cn1)c(-c1cnn(C)c1)nn2[C@H]1CC[C@@H](Oc2nccc(C(F)(F)F)c2F)CC1 [Example 173, 1-((1s,4s)-4-((3-fluoro-4-(trifluoromethyl)pyridin-2-yl)oxy)cyclohexyl)-N-methyl-3-(1-methyl-1H-pyrazol-4-yl)-1H-pyrazolo[4,3-c]pyridin-6-amine] | 10 to 100 nM | < 10 nM | < 10 nM
10 | CCNc1cc2c(cn1)c(C1CCN(C)CC1)nn2[C@H]1CC[C@@H](Oc2nccc(C(F)(F)F)c2F)CC1 [Example 316, N-ethyl-1-((1s,4s)-4-((3-fluoro-4-(trifluoromethyl)pyridin-2-yl)oxy)cyclohexyl)-3-(1-methylpiperidin-4-yl)-1H-pyrazolo[4,3-c]pyridin-6-amine] | 10 to 100 nM | < 10 nM | < 10 nM
11 | CCNc1cc2c(cn1)c(-c1cnc(C)o1)nn2[C@H]1CC[C@@H](Oc2nccc(C(F)(F)F)c2F)CC1 [Example 308, N-ethyl-1-((1s,4s)-4-((3-fluoro-4-(trifluoromethyl)pyridin-2-yl)oxy)cyclohexyl)-3-(2-methyloxazol-5-yl)-1H-pyrazolo[4,3-c]pyridin-6-amine] | 100 to 1000 nM | < 10 nM | < 10 nM
12 | CCNc1cc2c(cn1)c(-c1cnn(C)c1)nn2[C@H]1CC[C@@H](Oc2nccc(C(F)(F)F)c2F)CC1 [Example 198, N-ethyl-1-((1s,4s)-4-((3-fluoro-4-(trifluoromethyl)pyridin-2-yl)oxy)cyclohexyl)-3-(1-methyl-1H-pyrazol-4-yl)-1H-pyrazolo[4,3-c]pyridin-6-amine] | 10 to 100 nM | < 10 nM | < 10 nM
13 | CCNc1cc2c(cn1)c(C1CCNCC1)nn2[C@H]1CC[C@@H](Oc2nccc(C(F)(F)F)c2F)CC1 [Example 319, N-ethyl-1-((1s,4s)-4-((3-fluoro-4-(trifluoromethyl)pyridin-2-yl)oxy)cyclohexyl)-3-(piperidin-4-yl)-1H-pyrazolo[4,3-c]pyridin-6-amine] | < 10 nM | < 10 nM | < 10 nM
14 | CNc1cc2c(cn1)c(-c1cnn(CC(C)(C)O)c1)nn2[C@H]1CC[C@@H](Oc2ccccc2F)CC1 [Example 396, 1-(4-(1-((1s,4s)-4-(2-fluorophenoxy)cyclohexyl)-6-(methylamino)-1H-pyrazolo[4,3-c]pyridin-3-yl)-1H-pyrazol-1-yl)-2-methylpropan-2-ol] | 10 to 100 nM | < 10 nM | < 10 nM
15 | CCNc1cc2c(cn1)c(-c1cnn(C)c1)nn2[C@H]1CC[C@@H](Oc2c[nH]nc2C(F)(F)F)CC1 [Example 311, N-ethyl-3-(1-methyl-1H-pyrazol-4-yl)-1-((1s,4s)-4-((3-(trifluoromethyl)-1H-pyrazol-4-yl)oxy)cyclohexyl)-1H-pyrazolo[4,3-c]pyridin-6-amine] | < 10 nM | < 10 nM | < 10 nM
16 | CCNc1cc2c(cn1)c(-c1cnn(C)c1)nn2[C@H]1CC[C@@H](Oc2cccc(C#N)c2)CC1 [Example 378, 3-(((1s,4s)-4-(6-(ethylamino)-3-(1-methyl-1H-pyrazol-4-yl)-1H-pyrazolo[4,3-c]pyridin-1-yl)cyclohexyl)oxy)benzonitrile] | 10 to 100 nM | < 10 nM | < 10 nM
17 | CCNc1cc2c(cn1)c(-c1cnn(C(CO)CO)c1)nn2[C@H]1CC[C@@H](Oc2cccnc2C(F)(F)F)CC1 [Example 207, 2-(4-(6-(ethylamino)-1-((1s,4s)-4-((2-(trifluoromethyl)pyridin-3-yl)oxy)cyclohexyl)-1H-pyrazolo[4,3-c]pyridin-3-yl)-1H-pyrazol-1-yl)propane-1,3-diol] | < 10 nM | < 10 nM | < 10 nM
18 | CNc1cc2c(cn1)c(-c1ccc(=O)n(C)c1)nn2[C@H]1CC[C@@H](Oc2cccnc2C(F)(F)F)CC1 [Example 217, 1-methyl-5-(6-(methylamino)-1-((1s,4s)-4-((2-(trifluoromethyl)pyridin-3-yl)oxy)cyclohexyl)-1H-pyrazolo[4,3-c]pyridin-3-yl)pyridin-2(1H)-one] | < 10 nM | < 10 nM | < 10 nM
19 | CCNc1cc2c(cn1)c(N1CCNCC1)nn2[C@H]1CC[C@@H](Oc2nccc(C(F)(F)F)c2F)CC1 [Example 343, N-ethyl-1-((1s,4s)-4((3-fluoro-4-(trifluoromethyl)pyridin-2-yl)oxy)cyclohexyl)-3-(piperazin-1-yl)-1H-pyrazolo[4,3-c]pyridin-6-amine] | < 10 nM | < 10 nM | < 10 nM
20 | CCNc1cc2c(cn1)c(-c1cnn(C[C@@H](O)CO)c1)nn2[C@H]1CC[C@@H](Oc2cccnc2C(F)(F)F)CC1 [Example 209, ®-3-(4-(6-(ethylamino)-1-((1s,4R)-4-((2-(trifluoromethyl)pyridin-3-yl)oxy)cyclohexyl)-1H-pyrazolo[4,3-c]pyridin-3-yl)-1H-pyrazol-1-yl)propane-1,2-diol] | < 10 nM | < 10 nM | < 10 nM
21 | CCNc1cc2c(cn1)c(-c1cnn(C[C@H](O)C(C)(C)O)c1)nn2[C@H]1CC[C@@H](Oc2ccc(F)cc2F)CC1 [Example 448, (S)-1-(4-(1-((1s,4S)-4-(2,4-difIuorophenoxy)cyclohexyl)-6-(ethylamino)-1H pyrazolo[4,3-c]pyridin-3-yl)-1H-pyrazol-1-yl)-3-methylbutane-2,3-diol] | 10 to 100 nM | < 10 nM | < 10 nM
22 | CCNc1cc2c(cn1)c(-c1cnn(CC(C)(C)CO)c1)nn2[C@H]1CC[C@@H](Oc2nccc(C(F)(F)F)c2F)CC1 [Example 271, 3-(4-(6-(ethylamino)-1-((1s,4s)-4-((3-fluoro-4-(trifluoromethyl)pyridin-2-yl)oxy)cyclohexyl)-1H-pyrazolo[4,3-c]pyridin-3-yl)-1H-pyrazol-1-yl)-2,2-dimethylpropan-1-ol hydrochloride] | 10 to 100 nM | < 10 nM | < 10 nM
23 | CCNc1cc2c(cn1)c(-c1cnn(C[C@H](O)CO)c1)nn2[C@H]1CC[C@@H](Oc2cccnc2C(F)(F)F)CC1 [Example 208, (S)-3-(4-(6-(ethylamino)-1-((1s,4R)-4-((2-(trifluoromethyl)pyridin-3-yl)oxy)cyclohexyl)-1H-pyrazolo[4,3-c]pyridin-3-yl)-1H-pyrazol-1-yl)propane-1,2-diol] | < 10 nM | < 10 nM | < 10 nM
